Source: paper PMC7508162 (Frontiers in Pharmacology, 2020)

Key:
[1] = tested on: P2 receptors; parameters: method as in Robson et al., 2006; conditions: ref Robson et al., 2006; cited from earlier work
[2] = molecular target: T1, human CD39 (Homo sapiens, UniProt P49961); assay: Malachite green assay for CD39 (natural substrate ATP); assay type: biochemical; parameters: Human umbilical cord membrane preparations (250 ng) natively expressing high amounts of CD39; from tissue; host or cells: human umbilical cord membranes; conditions: natural substrate ATP 50 µM, n = 3, read-out: Ki ± SEM (converted)
T1 sequence (P49961 1-510): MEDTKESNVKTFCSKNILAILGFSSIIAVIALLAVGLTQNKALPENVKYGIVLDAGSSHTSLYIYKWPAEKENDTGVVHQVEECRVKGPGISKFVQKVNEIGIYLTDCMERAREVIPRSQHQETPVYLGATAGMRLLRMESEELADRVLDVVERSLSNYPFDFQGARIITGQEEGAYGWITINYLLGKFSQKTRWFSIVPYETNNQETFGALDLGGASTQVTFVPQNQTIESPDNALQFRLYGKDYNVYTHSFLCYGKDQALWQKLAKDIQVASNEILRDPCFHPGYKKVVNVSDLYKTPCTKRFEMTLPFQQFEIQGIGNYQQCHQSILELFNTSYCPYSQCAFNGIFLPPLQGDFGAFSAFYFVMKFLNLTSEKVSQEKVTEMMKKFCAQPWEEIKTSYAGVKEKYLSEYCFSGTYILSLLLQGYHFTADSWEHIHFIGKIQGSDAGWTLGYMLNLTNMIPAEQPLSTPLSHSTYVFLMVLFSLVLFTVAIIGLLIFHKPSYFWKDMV
Procedure: (§1) They were minced and homogenized with a polytron in 95 mM NaCl, 0.1 mM phenylmethylsulfonyl fluoride (PMSF), and 45 mM Tris solution, pH 7.6. […] The pellets were resuspended in 5 mM Tris buffer solution, pH 8.0 and 10% glycerol. All purification steps were performed at 4°C. The preparations were kept at −80°C.
The reaction buffer contained 10 mM HEPES, 2 mM CaCl2, 1 mM MgCl2, pH 7.4 in a final volume of 50 μl in transparent 96-well half area plates. For CD39 (NTPDase1), we made use of human umbilical cord membranes preparations which express high levels of the enzyme. For the other human NTPDase isoenzymes, we had to resort to recombinant expression. […] The amount of enzyme preparation was adjusted to ensure 10–20% of substrate conversion. […] The released (inorganic) phosphate was quantified after 20 min of gentle shaking at 25°C by measuring the absorption of the malachite green-phosphomolybdate complex at 600 nm using a BMG PheraStar FS plate reader (BMG Labtech GmbH, Ortenberg, Germany).
% Inhibition=(B−T)/B*100%
where B is the average corrected absorption of the positive control without inhibitor and T the corrected absorption in the presence of test compound.
Full concentration-inhibition curves were determined with inhibitor concentrations ranging from 0.1 to 300 µM in the presence of 2% DMSO. Three independent experiments were performed (n = 3) and curves were calculated by the GraphPad Prism 8 software. The Ki value was calculated using the Cheng-Prusoff equation for competitive inhibitors: […]

[3] = molecular target: T1, human CD39; assay: Fluorescence capillary electrophoresis assay for CD39; assay type: biochemical; parameters: Human umbilical cord membrane preparations (250 ng) natively expressing high amounts of CD39; from tissue; host or cells: human umbilical cord membranes; conditions: fluorescent substrate PSB-017621A 0.5 µM; human umbilical cord membrane preparation; n = 3; Cheng-Prusoff; read-out: Ki ± SEM
Procedure: as §1
For inhibition screening, three independent experiments were performed. […] The reaction buffer contained 10 mM HEPES, 2 mM CaCl2, 1 mM MgCl2, pH 7.4. The samples were incubated at 37°C for 4 min, and the enzymatic reaction was terminated by heating at 90°C for 5 min. The solution was then diluted 1:20 with reaction buffer to perform separation of nucleotides by capillary electrophoresis (CE) followed by laser-induced fluorescence (LIF) detection. […] Three independent experiments were performed, and curves were calculated by GraphPad Prism 8 software (GraphPad software, San Diego, CA, USA).
Analysis was carried out using a P/ACE MDQ capillary electrophoresis system (Beckman Instruments, Fullerton, CA, USA). The separation was performed in a polyacrylamide-coated capillary [30 cm (10 cm effective length) × 50 µm (id), × 360 µm (od)]. Before each run, the capillary was rinsed with the background electrolyte [50 mM phosphate buffer (pH 6.5)] for 1 min at 30 psi. Samples were electrokinetically injected by applying a voltage of -6 kV for 30 s at the capillary outlet, and the fluorescent nucleotide derivatives were separated by voltage application of -15 kV. […] Data collection and peak area analysis were performed by the P/ACE MDQ software 32 KARAT obtained from Beckman Coulter (Fullerton, CA, USA).

| Ki [2] [nM] | Ki [3] [nM] | SMILES | effect on P2 receptors [1] |
| --- | --- | --- | --- |
|  |  | CCN(CC)c1ncnc2c1ncn2[C@@H]1O[C@H](COP(=O)(O)OP(=O)(O)C(Br)(Br)P(=O)(O)O)[C@@H](O)[C@H]1O [ARL67156, (Dibromo((((((2R,3S,4R,5R)-5-(6-(diethylamino)-9H-purin-9-yl)-3,4-dihydroxytetrahydrofuran-2-yl)methoxy)-(hydroxy)-phosphoryl)oxy)(hydroxy)phosphoryl)methyl)-phosphonic Acid, reference compound] | no significant effect |
| 3350 | 1510 ± 400 | CCCCNc1nc2c(NC)ncnc2n1[C@@H]1O[C@H](COP(=O)(O)OP(=O)(O)C(Br)(Br)P(=O)(O)O)[C@@H](O)[C@H]1O [Compound 33, (Dibromo((((((2R,3S,4R,5R)-5-(8-(butylamino)-6-(methylamino)-9H-purin-9-yl)-3,4-dihydroxy-tetrahydrofuran-2-yl)methoxy)(hydroxy)phosphoryl)oxy)-(hydroxy)phosphoryl)methyl)-phosphonic Acid] |  |
